# Literature values as cited in patent US20060257347A1, “Self-preservation system” (priority 2005, published 2006).
# Experiments:
# Conditions in all cases: hinokitiol alone; known to be
# [1] = system: Pseudomonas aeruginosa (ATCC No. 9027)
# [2] = system: Staphylococcus aureus (ATCC No. 6538)
# [3] = system: Escherichia coli (ATCC No. 8739)
# [4] = system: Aspergillus niger (ATCC No. 16404)
# [5] = system: Candida albicans (ATCC No. 10231)
structure (smiles),measurement,setting,value
"CC(C)c1cccc(=O)c(O)c1 [hinokitiol, Hinokitiol]",MIC (Minimum Inhibitory Concentration) Pseudomonas aeruginosa,[1],50.0 mg/mL
same,MIC (Minimum Inhibitory Concentration) Staphylococcus aureus,[2],40.0 mg/mL
same,MIC (Minimum Inhibitory Concentration) Escherichia coli,[3],40.0 mg/mL
same,MIC (Minimum Inhibitory Concentration) Aspergillus niger,[4],40.0 mg/mL
same,MIC (Minimum Inhibitory Concentration) Candida albicans,[5],12.5 mg/mL
